Key:
[1] = system: Brain-Specific Kinases (BRSKs); assay: Kinase assays, BRSKs; assay type: biochemical; conditions: in vitro
[2] = system: TLR-stimulated macrophages; assay: qPCR of CREB-dependent gene mRNA in TLR-stimulated macrophages; assay type: cell-based, mouse
Method: Bone-marrow derived macrophages were differentiated for 7 days in DMEM supplemented with 5 ng/ml recombinant M-CSF (R&D systems), 2 mM glutamine, 10% foetal calf serum, penicillin and streptomycin. […]
mRNA was extracted from macrophages using the RNeasy Micro Kit following the manufacturers' instructions (Qiagen). cDNA was generated from 1 μg of total RNA using the iScript cDNA synthesis kit and quantified by qPCR using the SsoFast EvaGreen Supermix on a CFX96 real time system (Bio-Rad Laboratories). The relative expression of each gene was calculated from Ct values using the Pfaffl method^30 and was normalized against the mRNA levels of 18S RNA. The following primers were used: IL-10-F, […]; IL-10-R, […]; c-Fos-F, […]; c-Fos-R, […]; nurr1-F, […]; nurr1-R, […]; nurr77-F, […]; nurr77-R, […]; 18S-F, […]; 18S-R, […]; IL-1ra-F, […]; IL-1ra-R, […]; SPHK1-F, […]; SPHK1-R, […]; LIGHT-F, […]; LIGHT-R, […]; ArgI-F, […]; ArgI-R, […]; IFN-F, […]; IFNγ-R, […].
[…]. Biochem J 434:93-104) using the indicated antibodies. RNA was extracted using the RNeasy Micro Kit (Qiagen). cDNA was generated using the iScript cDNA synthesis kit and quantified by qPCR using the SsoFast EvaGreen Supermix (Bio-Rad Laboratories). The relative expression of each gene was calculated from Ct values using the Pfaffl method (Pfaffl M W (2001) A new mathematical model for relative quantification in real-time RT-PCR. Nucleic Acids Res 29:e45) and was normalized against the mRNA levels of 18S or GAPDH RNA. Fold-induction for each gene was reported relative to untreated control cells, which was set to 1. The concentrations of TNFα, IL-6, IL-10, IL-12p40, and RANTES in culture supernatants were measured using the Bio-Plex Pro Assay system from Bio-Rad. Further details in supplementary information.
mRNA was extracted from cells using the RNeasy Micro Kit following the manufacturers' instructions (Qiagen). cDNA was generated from 1 μg of total RNA using the iScript cDNA synthesis kit and quantified by qPCR using the SsoFast EvaGreen Supermix on a CFX96 real time system (Bio-Rad Laboratories). The relative expression of each gene was calculated from Ct values using the Pfaffl method (5) and was normalized against the mRNA levels of 18S RNA or GAPDH. Results are reported relative to untreated control cells, which was set to 1. The following primers were used: […]

[3] = system: protein kinases that possess a threonine residue at the gatekeeper site (Src, Lck, Yes, BTK, FGF and Ephrin receptors); assay: Kinase profiling, kinases with threonine at the gatekeeper site; assay type: biochemical; conditions: kinase panel; 1 μM KIN112, 0.1 μM HG-9-91-01
Method: Recombinant SIK1, SIK2, SIK3 were expressed as GST-fusion proteins in HEK293 cells and purified on a glutathione-Sepharose column. […] FLAG-CRTC3 was immunoprecipitated using anti-FLAG M2 agarose, washed in kinase buffer (50 mM Tris/HCl pH 7.4, 10 mM Mg acetate, 0.1 mM EGTA, 2 mM DTT) and reactions initiated by adding 4 U/ml recombinant kinase with 0.1 mM ATP (specific activity 3000 cpm/pmol). Phosphorylation of CRTC3 was monitored by autoradiography as well as immunoblotting using phosphospecific antibodies raised against Ser162, Ser329 and Ser370. […] Kinase profiling was performed as previously described (7) and performed by the International Centre for Kinase Profiling (www.kinase-screen.mrc.ac.uk).

[4] = system: LKB1−/− macrophages; assay: Cytokine secretion in LKB1−/− macrophages; assay type: cell-based, mouse
Description: FIGS. 9A to 9I. Genetic evidence using LKB1-deficient macrophages and a drug-resistant mutant of SIK2 to establish that inhibition of SIKs induces IL-10 production. (FIG. 9A) Loss of CRTC3 phosphorylation in LKB1−/− MEFs. (FIG. 9B) Enhanced IL-10 production and reduced secretion of pro-inflammatory cytokines in LysM-Cre-LKB1flox/flox macrophages (n=3, mean±SD). (FIG. 9C) Sequence alignment of AMPK-related kinases. The ‘gatekeeper’ site is indicated using an asterisk. (FIG. 9D) […] curves of KIN112 against different SIK2 mutants. […]. (FIG. 9F) Induction of HA-SIK2 (WT and [T96Q]) expression in RAW264.7 macrophages. […]. RAW264.7 cells were induced to express HA-SIK2-WT or HA-SIK2[T96]. As a further control, cells transduced with the empty vector and which only express endogenous SIK isoforms were also used. […]. […]. IL-10^−/− mice on a C57BL/6 background were purchased from The Jackson Laboratory, Maine, USA. LKB1^flox/flox mice on a C57BL/6 background were a generous gift from Alan Ashworth and were crossed with LysM-Cre mice to delete LKB1 in macrophages. Mice were bred at the University of Dundee under specific pathogen-free conditions in accordance with European Union regulations. Water supply for IL-10^−/− mice was supplemented with antibiotics to prevent the development of colitis. Work was approved by local ethical review and was performed with a UK Home Office project license. […]

[5] = LPS-stimulated macrophages with MRT67307

Structure (SMILES) | inhibition of BRSKs [1] | time at which IL-10 mRNA levels reach a maximum [2, 5] [h] | time at which IL-10 mRNA returns to near basal levels [2, 5] [h] | mRNA of CREB-dependent genes c-fos, nurr1 and nurr77 ([2]; TLR-stimulated macrophages) | IL-10 mRNA ([2]; TLR/LPS-stimulated macrophages) | inhibition of protein kinases with a threonine residue at the gatekeeper site [3] | IL-10, IL-12 and TNFα secretion in response to LPS [4]
O=C(NCCCNc1nc(Nc2cccc(CN3CCOCC3)c2)ncc1C1CC1)C1CCC1 [MRT67307] | did not inhibit | 1 | 4 | increase | dramatically increased |  | 
COc1ccc(N(C(=O)Nc2c(C)cccc2C)c2cc(Nc3ccc(N4CCN(C)CC4)cc3)ncn2)c(OC)c1 [HG-9-91-01, 1-(2,4-dimethoxyphenyl)-3-(2,6-dimethylphenyl)-1-(6-((4-(4-methylpiperazin-1-yl)phenyl)amino)pyrimidin-4-yl)urea] |  |  |  |  |  | inhibited | unaffected
